The NIST ThermoML archive (doi:10.1016/j.jct.2018.08.035)
± gives the expanded uncertainty stated by the source.

Test: xn = mol fraction of the nth substance listed
Conditions: 100 kPa, Liquid, Vibrating tube method

CCC(O)CC [3-pentanol] + C[N+](=O)[O-]
Conditions | mass density [kg/m3]
291.36 K, x1 = 0.338 | 976.695 ± 2.1
291.36 K, x1 = 0.363 | 976.137 ± 2.1
291.36 K, x1 = 0.546 | 910.024 ± 2.5
291.36 K, x1 = 0.587 | 897.278 ± 1.9
291.36 K, x1 = 0.615 | 890.441 ± 1.9
291.45 K, x1 = 0.246 | 1006.19 ± 2.2
291.45 K, x1 = 0.275 | 994.165 ± 2.2
291.45 K, x1 = 0.338 | 972.479 ± 2.2
291.45 K, x1 = 0.382 | 968.647 ± 2.1
291.45 K, x1 = 0.407 | 965.925 ± 2.1
291.45 K, x1 = 0.414 | 965.499 ± 2.1
291.45 K, x1 = 0.486 | 938.691 ± 2.2
291.45 K, x1 = 0.488 | 935.781 ± 2.2
291.45 K, x1 = 0.546 | 907.652 ± 1.9
291.45 K, x1 = 0.573 | 900.812 ± 1.9
291.45 K, x1 = 0.587 | 897.17 ± 1.9
291.45 K, x1 = 0.615 | 890.332 ± 1.9
291.46 K, x1 = 0.266 | 997.671 ± 2.2
291.46 K, x1 = 0.3 | 984.765 ± 2.1
291.46 K, x1 = 0.325 | 975.497 ± 2.1
291.46 K, x1 = 0.363 | 971.707 ± 2.2
291.55 K, x1 = 0.246 | 1006.07 ± 2.2
291.55 K, x1 = 0.275 | 994.042 ± 2.2
291.55 K, x1 = 0.382 | 965.717 ± 2.1
291.55 K, x1 = 0.407 | 961.145 ± 2.1
291.55 K, x1 = 0.414 | 961.374 ± 2.1
291.55 K, x1 = 0.486 | 933.844 ± 2.3
291.55 K, x1 = 0.488 | 932.33 ± 2.2
291.55 K, x1 = 0.573 | 900.7 ± 1.9
291.56 K, x1 = 0.266 | 997.549 ± 2.2
291.56 K, x1 = 0.3 | 984.639 ± 2.1
291.56 K, x1 = 0.325 | 975.358 ± 2.1
291.56 K, x1 = 0.338 | 970.561 ± 2.1
291.56 K, x1 = 0.363 | 967.75 ± 2.1
291.56 K, x1 = 0.546 | 907.531 ± 1.9
291.56 K, x1 = 0.587 | 897.059 ± 1.9
291.56 K, x1 = 0.615 | 890.227 ± 1.9
291.65 K, x1 = 0.246 | 1005.95 ± 2.2
291.65 K, x1 = 0.266 | 997.425 ± 2.2
291.65 K, x1 = 0.275 | 993.918 ± 2.2
291.65 K, x1 = 0.325 | 975.23 ± 2.1
291.65 K, x1 = 0.338 | 970.427 ± 2.1
291.65 K, x1 = 0.363 | 961.876 ± 2.1
291.65 K, x1 = 0.382 | 955.241 ± 2.1
291.65 K, x1 = 0.407 | 957.953 ± 2.1
291.65 K, x1 = 0.414 | 956.971 ± 2.2
291.65 K, x1 = 0.486 | 923.683 ± 2
291.65 K, x1 = 0.488 | 922.941 ± 2
291.65 K, x1 = 0.546 | 907.417 ± 1.9
291.65 K, x1 = 0.573 | 900.591 ± 1.9
291.65 K, x1 = 0.615 | 890.121 ± 1.9
291.66 K, x1 = 0.3 | 984.514 ± 2.1
291.66 K, x1 = 0.587 | 896.95 ± 1.9
291.75 K, x1 = 0.246 | 1005.83 ± 2.2
291.75 K, x1 = 0.266 | 997.302 ± 2.2
291.75 K, x1 = 0.275 | 993.795 ± 2.2
291.75 K, x1 = 0.3 | 984.391 ± 2.1
291.75 K, x1 = 0.325 | 975.108 ± 2.1
291.75 K, x1 = 0.338 | 970.303 ± 2.1
291.75 K, x1 = 0.363 | 961.743 ± 2.1
291.75 K, x1 = 0.382 | 955.25 ± 2.1
291.75 K, x1 = 0.414 | 944.629 ± 2.1
291.75 K, x1 = 0.486 | 923.534 ± 2
291.75 K, x1 = 0.488 | 922.803 ± 2
291.75 K, x1 = 0.546 | 907.305 ± 1.9
291.75 K, x1 = 0.573 | 900.482 ± 1.9
291.75 K, x1 = 0.615 | 890.018 ± 1.9
291.76 K, x1 = 0.407 | 947.126 ± 2
291.76 K, x1 = 0.587 | 896.844 ± 1.9
291.85 K, x1 = 0.246 | 1005.7 ± 2.2
291.85 K, x1 = 0.275 | 993.671 ± 2.2
291.85 K, x1 = 0.3 | 984.268 ± 2.1
291.85 K, x1 = 0.338 | 970.173 ± 2.1
291.85 K, x1 = 0.382 | 955.119 ± 2.1
291.85 K, x1 = 0.414 | 944.718 ± 2
291.85 K, x1 = 0.486 | 923.411 ± 2
291.85 K, x1 = 0.573 | 900.371 ± 1.9
291.85 K, x1 = 0.615 | 889.909 ± 1.9
291.86 K, x1 = 0.266 | 997.179 ± 2.2
